This is an account of results in patent US6352960B1, “Controlling agent for agricultural or horticultural bacterial disease” (Meiji Seika Kaisha, Ltd., priority 1998, dated 2002).

The test system of assay [1] is Japanese apricot canker bacterium (Pseudomonas syringae pv. morsprunorum). Put plainly: in vitro antibacterial test on PDA culture medium. It counts as cell-based. Also noted: key to growth of bacteria: +++: Colonies grew well; ++: Growth was slightly suppressed; +: Growth was strongly suppressed but proliferation was observed; −: No proliferation was observed. Conditions: for growth of bacteria: 21° C., after 3 days. The procedure:
(§1) Each agent was dissolved in sterilized water and added to PDA culture medium (Nissui Seiyaku Co., Ltd.) and Japanese apricot canker bacterium (Pseudomonas syringae pv. morsprunorum), vegetables' soft rot disease bacterium (Erwinia carotovora sub-sp. cartovora), and citrus canker bacterium (Xanthomonas campestris pv. citri) were inoculated.
(§2) The Japanese apricot canker bacterium was cultivated at 21° C., the vegetables' soft rot disease bacterium and citrus canker bacterium were cultivated at 28° C. After 3 days from the start of cultivation, the growth of bacteria was monitored.

For assay [2], the system named is citrus canker bacterium (Xanthomonas campestris pv. citri). Put plainly: in vitro antibacterial test on PDA culture medium. It is filed as cell-based. Also on record: key to growth of bacteria: +++: Colonies grew well; ++: Growth was slightly suppressed; +: Growth was strongly suppressed but proliferation was observed; −: No proliferation was observed. The following applies: for growth of bacteria: 28° C., after 3 days. How it is done:
as §1, §2

Assay [3] relates to vegetables' soft rot disease bacterium (Erwinia carotovora sub-sp. cartovora). The assay can be described thus: in vitro antibacterial test on PDA culture medium. It counts as cell-based. Also noted: key to growth of bacteria: +++: Colonies grew well; ++: Growth was slightly suppressed; +: Growth was strongly suppressed but proliferation was observed; −: No proliferation was observed. The following applies: for growth of bacteria: 28° C., after 3 days. The procedure: as §1, §2

The subject of assay [4] is Japanese apricot bacterial canker. The assay can be described thus: Controlling effect on Japanese apricot bacterial canker (1), field trees, spray. It is filed as in vivo. Conditions: sprayed four times at 10-day intervals. How it is done: (§3) Preventive value=(1−disease severity of treated lot/disease severity of non-treated lot)×100
Commercially available Agrepto wettable powder containing 25% of streptomycin sulfate (20% as streptomycin) or commercially available Iminoctadine ABS salt [trade name: Bellkute wettable powder (40%)] was diluted to a predetermined concentration and tested. Also, the preparation produced according to Preparation Example 2 was diluted to a predetermined concentration and tested.
Young 5-year old Japanese apricot trees which frequently suffered from Japanese apricot bacterial canker in the preceding year, were tested. Predetermined agents were continually sprayed four times with intervals of 10 days starting from early April. In May, the disease severity of Japanese apricot bacterial canker was searched on 100 fruits per tree for total 5 trees in each lot and the results were evaluated by 5-rank indices.
The damaged fruits were searched and disease severity and preventive value were calculated using the indices and equation below.
2: Medium=6 to 15 lesions
6: Extreme=31 or more lesions or with cracks
Disease severity=Σ(Index×The number of damaged fruits per degree)÷(6×The number of tested fruits)×100

For assay [5], the system named is Japanese apricot canker bacterium (Pseudomonas syringae pv. morsprunorum). The assay can be described thus: Controlling effect on Japanese apricot bacterial canker (2), potted seedlings, spray inoculation. It counts as in vivo. The following applies: leaf spray before inoculation, after 7 days. How it is done:
as §3
Japanese apricot seedlings rested for the winter season in the open field were cut to the height of 60 cm and transplanted to 1/5000 a Wagner pots and allowed to sprout and develop leaves in a greenhouse were tested. After giving fine bruises to the leaves with Carborandum, water was sprayed sufficiently to flow away the Carborandum. After air drying, the agents diluted to predetermined concentrations with water were sprayed onto the leaves, which were air dried again. Japanese apricot canker bacterium (Pseudomonas syringae pv. morsprunorum) preliminarily cultivated in PPG medium (200 g of potato, 3 g of disodium phosphate (dodecahydrate), 0.5 g of dikalium phosphate, 5 g of peptone, 3 g of sodium chloride, 5 g of glucose, 1 L of distilled water) was inoculated by spraying together with the medium. The inoculated plants were placed under controlled humid conditions (temperature 20° C., humidity 99% to 100%) for 40 hours and then transferred to a greenhouse to allow the disease to emerge. After 7 days, the lesion area in each lot was measured and disease severity and preventive value were calculated according to the following indices.
1: Several lesions on the leaves of one branch;
2: The damaged area was less than ¼ of the total area of the leaves on one branch;
3: The damaged area was from ¼ to less than ½ of the total area of the leaves on one branch;
4: The damaged area was from ½ to less than ⅔ of the total area of the leaves on one branch; and
5: The damaged area was ⅔ or more of the total area of the leaves on one branch.
Disease severity=Σ(Index×The number of data)÷(Total number of data×5)×100

Assay [6] has as its system citrus canker bacterium (Xanthomonas campestris pv. citri). The assay can be described thus: Controlling effect on citrus canker, pot-grown Watson pomelo leaves. Conditions: 20 leaves, after 1 month. It is filed as in vivo. How it is done: as §3
(§4) (Disease severity may be replaced by degree of damage or ratio of damage.)
Commercially available Agrepto wettable powder containing 25% of streptomycin sulfate (20% as streptomycin) or commercially available Iminoctadine ABS salt [trade name: Bellkute wettable powder (40%)] was diluted to a predetermined concentration and tested. The preparations produced according to Preparation Examples 2 and 4 were also diluted to predetermined concentrations. 20 new leaves of pot-grown Watson pomelo were tested for each of the preparations. After wounding the leaves with a needle, each predetermined agent solution was sprayed thereon and the leaves were air dried. Then, citrus canker bacterium (Xanthomonas campestris pv. citri) was inoculated with the density of 1×10^6 cells. Thereafter, the trees were put into controlled cultivation in a greenhouse. After 1 month, the emergence of citrus canker was investigated.

The next assay deals with Celery cabbage soft rot. Put plainly: Controlling effect on Celery cabbage soft rot, field test. The following applies: sprayed 3 times at 7-day intervals. It is filed as in vivo. The procedure:
as §3, §4
Commercially available Agrepto wettable powder containing 25% of streptomycin sulfate (20% as streptomycin) or commercially available Iminoctadine ABS salt [trade name: Bellkute wettable powder (40%)] was diluted to a predetermined concentration and tested. The preparations produced according to Preparation Examples 1 and 3 were also diluted to predetermined concentrations. In early August, Celery cabbages were sown in 5.2 m^2 per lot in triplicate. From 20 September when the plant reached 10-leaf stage, the predetermined agents were continually sprayed 3 times with intervals of 7 days. In late October, the disease severity and degree of damage of Celery cabbage soft rot were investigated using 4-rank indices.
1: Only a portion of outer leaves damaged;
2: A portion of outer leaves and head portion damaged; and
3: Most part of head portion damaged.
Degree of damage=Σ(Index×the number of individuals)÷(the number of individuals searched×3)×100

The next assay deals with genus Xanthomonas. Conditions: from Japanese Patent Publication No. Sho 43-27335; cited from earlier work.
A further assay deals with genus Pseudomonas. Conditions: from Japanese Patent Publication No. Sho 43-27335; cited from earlier work.

Where a name gives a salt, the structure may show the parent alone.

For the compound `N=C(N)NCCCCCCCCNCCCCCCCCNC(=N)N` [Iminoctadine ABS salt, bis(8-guanidinooctyl)amine], the growth of bacteria entry is given as “+++” in assay [1] (1 ppm in PDA medium); “+++” in assay [1] (10 ppm in PDA medium); “++” in assay [1] (100 ppm in PDA medium); “+++” in assay [2] (1 ppm in PDA medium); “+++” in assay [2] (10 ppm in PDA medium); “+++” in assay [2] (100 ppm in PDA medium). Also, the growth of bacteria entry in assay [3] (1 ppm in PDA medium), in assay [3] (10 ppm in PDA medium) and in assay [3] (100 ppm in PDA medium) was “+++” in each case. The “suppression of growth in vitro” value in assay [1] (even added at 100 ppm), in [2] (even added at 100 ppm) and in assay [3] (even added at 100 ppm) was “did not suppress the growth” each time. The Disease severity in assay [4] (200 ppm) is on record as 1.2; in assay [5] (200 ppm), 19. The Preventive value in assay [4] (200 ppm) stood at 68; in assay [5] (200 ppm) it was 73; in assay [6] (50 ppm), 55; in assay [6] (100 ppm), 75; in assay [6] (400 ppm), 85; with Celery cabbage soft rot (200 ppm) it was 71. Moreover, the “The number of damaged fruits” value in [4] (200 ppm) is given as 18. In addition, the “Ratio of suffering leaves” value is given as 45 in assay [6] (50 ppm), 25 in assay [6] (100 ppm) and 15 in assay [6] (400 ppm). The entries for the “The number of suffering leaves” value in assay [6] (50 ppm), in assay [6] (100 ppm) and in [6] (400 ppm) were 9, 5 and 3, respectively. In the assay with Celery cabbage soft rot (200 ppm), this compound came in with a Degree of damage of 6.4. Moreover, the “The number of individuals damaged” value with Celery cabbage soft rot (200 ppm) stood at 12.
For the compound `CCn1cc(C(=O)O)c(=O)c2cc3c(cc21)OCO3` [Oxolinic acid, oxolinic acid], the growth of bacteria entry was “++” in [1] (1 ppm in PDA medium); “−” in assay [1] (10 ppm in PDA medium); “+++” in assay [2] (1 ppm in PDA medium); “++” in [2] (10 ppm in PDA medium); “−” in assay [3] (1 ppm in PDA medium); “−” in assay [3] (10 ppm in PDA medium). In the assay on Celery cabbage soft rot (100 ppm), this compound gave a Degree of damage of 3.3. Moreover, the Preventive value with Celery cabbage soft rot (100 ppm) is recorded as 85. For the same compound, the “The number of individuals damaged” value in the assay with Celery cabbage soft rot (100 ppm) is recorded as 4.
Turning to `[H]/N=C(/N)N[C@H]1[C@H](O)[C@@H](O)[C@H](O[C@@H]2O[C@@H](C)[C@](O)(C=O)[C@H]2O[C@@H]2O[C@@H](CO)[C@H](O)[C@@H](O)[C@@H]2NC)[C@@H](N/C(N)=N\[H])[C@@H]1O` [Streptomycin sulfate, streptomycin sulfate], the growth of bacteria entry in assay [1] (1 ppm in PDA medium) is on record as “++”; in assay [1] (10 ppm in PDA medium), “+”; in assay [1] (100 ppm in PDA medium), “−”; in assay [2] (1 ppm in PDA medium), “++”; in assay [2] (10 ppm in PDA medium), “+”; in assay [2] (100 ppm in PDA medium) it was “−”. The growth of bacteria result in [3] (1 ppm in PDA medium) is “+”; in assay [3] (10 ppm in PDA medium), “−”; in assay [3] (100 ppm in PDA medium) it was “−”. Also, the Disease severity in assay [4] (125 ppm) came to 1.6; in [5] (125 ppm) it was 24. Moreover, the Preventive value was 57 in assay [4] (125 ppm); 67 in assay [5] (125 ppm); 60 in assay [6] (62.5 ppm); 80 in assay [6] (125 ppm); 95 in assay [6] (500 ppm); 79 in the assay on Celery cabbage soft rot (125 ppm). In addition, the “The number of damaged fruits” value in assay [4] (125 ppm) is reported as 23. Moreover, the figures for the “Ratio of suffering leaves” value in [6] (62.5 ppm), in assay [6] (125 ppm) and in assay [6] (500 ppm) were 40, 20 and 5, respectively. Also, the “The number of suffering leaves” value in assay [6] (62.5 ppm) worked out at 8; in assay [6] (125 ppm), 4; in [6] (500 ppm) it was 1. Also, the Degree of damage in the assay with Celery cabbage soft rot (125 ppm) was 4.6. Moreover, the “The number of individuals damaged” value in the assay on Celery cabbage soft rot (125 ppm) was determined as 10.
On to `N=C(N)NCCCCCCCCNCCCCCCCCNC(=N)N.O=S(=O)(O)O` [bis (8-guanidiooctyl) amine sulfate], for which the “in vitro antibacterial activity against plant pathogenic bacteria” value (from here on “in vitro antibacterial activity”) in the assay on genus Xanthomonas and with genus Pseudomonas was “no activity” each time.
On to `N=C(N)NCCCCCCCCCCNCCCCCCCCCCNC(=N)N.O=S(=O)(O)O` [bis (10-guanidinodecyl) amine sulfate], for which the “in vitro antibacterial activity” value with genus Xanthomonas and in the assay on genus Pseudomonas was “revealed to have in vitro antibacterial activity” throughout.
As for `Cl.N=C(N)NCCCCCCCCCCCCNCCCCCCCCCCCCNC(=N)N` [bis (12-guanidinododecyl) amine hydrochloride], the “in vitro antibacterial activity” value in the assay with genus Xanthomonas and in the assay with genus Pseudomonas was “revealed to have in vitro antibacterial activity” each time.
